Experimental data published in PMC8284453 (Antimicrobial Agents and Chemotherapy, 2021).
In brackets after ≈: the same amount, converted by molar mass. Several values for one entry are separate records, joined by “and”; a condition that tells them apart may be missing. Equal entries are not always repeated. Where two headings read alike, the source gives them in different places.

Experiments:
[1] = system: Enterobacterales expressing class A ESBLs; assay: organism not typed; assay type: cell-based, E. coli, K. pneumoniae
[2] = system: K. pneumoniae ATCC BAA-1705 (KPC-2); assay: Broth microdilution MIC; assay type: cell-based; settings: Klebsiella pneumoniae, ATCCBAA1705
[3] = system: E. coli ESBL4 (CTX-M-15); assay: Broth microdilution MIC; assay type: cell-based; settings: Escherichia coli
[4] = system: K. pneumoniae ATCC BAA-1705 (KPC-2); assay: 24-h time-kill assay; assay type: cell-based; settings: Klebsiella pneumoniae, ATCCBAA1705; lowest concentration with ≥3-log10 CFU/ml reduction at 24 h; read-out: MBC
Outline: (§1)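 Bacteria at 5 × 10^5 CFU/ml in CAMHB, incubated at 37°C with shaking at 200 rpm. Viable counts determined at 0, 2, 4, 6, 8 and 24 h by 0.5 log10 serial dilution with overnight regrowth; quantification limit 2 log10 CFU/ml.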

[5] = system: K. pneumoniae 752286 (OXA-48); assay: 24-h time-kill assay; assay type: cell-based; settings: Klebsiella pneumoniae; lowest concentration with ≥3-log10 CFU/ml reduction at 24 h; read-out: MBC
Outline: as §1

[6] = system: E. cloacae ECL01 (TEM-72, ACT-1, P99AmpC); assay: 24-h time-kill assay; assay type: cell-based; settings: Enterobacter cloacae; lowest concentration with ≥3-log10 CFU/ml reduction at 24 h; read-out: MBC
Outline: as §1

[7] = system: E. coli ESBL4 (CTX-M-15); assay: 24-h time-kill assay; assay type: cell-based
Outline: as §1

[8] = system: Enterobacterales expressing class A carbapenemases (KPC); assay: organism not typed; assay type: cell-based, K. pneumoniae, E. coli, E. cloacae, Klebsiella oxytoca
[9] = system: Enterobacterales expressing class C cephalosporinases; assay: organism not typed
[10] = system: K. pneumoniae 752286 (OXA-48); assay: Broth microdilution MIC; assay type: cell-based; settings: Klebsiella pneumoniae
[11] = system: Enterobacterales expressing class C cephalosporinases
[12] = system: Enterobacterales expressing class D oxacillinases (OXA-48/48-like); assay: organism not typed; assay type: cell-based, E. coli, K. pneumoniae
[13] = system: E. cloacae ECL01 (TEM-72, ACT-1, P99AmpC); assay: Broth microdilution MIC; assay type: cell-based; settings: Enterobacter cloacae
[14] = system: isogenic strains of E. coli expressing Ambler class A, B, C, and D enzymes; assay: microbe, parasite or virus in culture; assay type: cell-based, Escherichia coli; settings: for Fold increase in MIC compared to vector control: inhibitor fixed at 4 μg/ml
[15] = 25 isolates, BLI fixed at 4 μg/ml, AMC 2:1

## C[C@@H](O)[C@H]1C(=O)N2C(C(=O)O)=C(SC3CN(C4=NCCS4)C3)[C@H](C)[C@H]12 [Tebipenem]
[1]
  MIC50: 0.03 µg/mL (≈ 0.0782 µM)
  MIC90: 0.06 µg/mL (≈ 0.156 µM)
[1]; [15]
  MIC range: ≤0.016 to 0.12 µg/mL
[2]
  MIC: 32 µg/mL (≈ 83.4 µM)
[3]
  MIC: ≤ 0.06 µg/mL
[4]
  MBC: 32 µg/mL (≈ 83.4 µM)
[5]
  MBC: > 32 µg/mL
[6]
  MBC: 0.25 µg/mL (≈ 0.652 µM)
[7]; Escherichia coli, lowest concentration with ≥3-log10 CFU/ml reduction at 24 h, read-out: MBC
  MBC: 0.06 µg/mL (≈ 0.156 µM)
[7]; Fig. 3a, CTB 2 μg/ml with BLI at 4 μg/ml, CTB alone 8 μg/ml, amoxicillin 8/clavulanic acid 4 μg/ml, penems 2 μg/ml
  outcome of 24-h time-kill assay: bactericidal activity
[8]
  MIC50: ≥ 64 µg/mL
  MIC90: ≥ 64 µg/mL
[8]; [15]
  MIC50: ≥64 µg/mL
  MIC90: ≥64 µg/mL
[8]; E. cloacae 847426 (KPC)
  MIC: ≥ 64 µg/mL
[8]; E. cloacae 847429 (KPC)
  MIC: ≥ 64 µg/mL
[8]; E. cloacae OIMGH49 (p99 AmpC, ACT-2, KPC-2, TEM-1)
  MIC: 32 µg/mL (≈ 83.4 µM)
[8]; E. coli 786978 (KPC)
  MIC: ≥ 64 µg/mL
[8]; K. oxytoca 847537 (KPC)
  MIC: ≥ 64 µg/mL
[8]; K. oxytoca 847539 (KPC)
  MIC: 8 µg/mL (≈ 20.9 µM)
[8]; K. pneumoniae 155140 (AmpC, KPC-2, SHV-12, TEM-1)
  MIC: ≥ 64 µg/mL
[8]; K. pneumoniae 845661 (KPC)
  MIC: ≥ 64 µg/mL
[8]; K. pneumoniae 845662 (KPC)
  MIC: ≥ 64 µg/mL
[8]; K. pneumoniae 845665 (KPC)
  MIC: ≥ 64 µg/mL
[8]; K. pneumoniae 845667 (KPC)
  MIC: ≥ 64 µg/mL
[8]; K. pneumoniae 845670 (KPC)
  MIC: 32 µg/mL (≈ 83.4 µM)
[8]; K. pneumoniae 845904 (KPC)
  MIC: ≥ 64 µg/mL
[8]; K. pneumoniae 847204 (KPC)
  MIC: ≥ 64 µg/mL
[8]; K. pneumoniae 847375 (KPC)
  MIC: ≥ 64 µg/mL
[8]; K. pneumoniae 847378 (KPC)
  MIC: ≥ 64 µg/mL
[8]; K. pneumoniae 847379 (KPC)
  MIC: 16 µg/mL (≈ 41.7 µM)
[8]; K. pneumoniae 847383 (KPC)
  MIC: ≥ 64 µg/mL
[8]; K. pneumoniae 847384 (KPC)
  MIC: ≥ 64 µg/mL
[8]; K. pneumoniae 847387 (KPC)
  MIC: ≥ 64 µg/mL
[8]; K. pneumoniae 847747 (KPC)
  MIC: ≥ 64 µg/mL
[8]; K. pneumoniae 848832 (KPC)
  MIC: ≥ 64 µg/mL
[8]; K. pneumoniae 848844 (KPC)
  MIC: ≥ 64 µg/mL
[8]; K. pneumoniae 897067 (KPC)
  MIC: 32 µg/mL (≈ 83.4 µM)
[8]; K. pneumoniae UMM (KPC-2, SHV-5, TEM-1)
  MIC: 32 µg/mL (≈ 83.4 µM)
[9]
  MIC50: 0.06 µg/mL (≈ 0.156 µM)
  MIC90: 0.5 µg/mL (≈ 1.3 µM)
[10]
  MIC: 16 µg/mL (≈ 41.7 µM)
[11]; C. freundii 134390 (AmpC, TEM-1)
  MIC: 0.03 µg/mL (≈ 0.0782 µM)
[11]; E. aerogenes 110099 (AmpC, SHV-12)
  MIC: 0.12 µg/mL (≈ 0.313 µM)
[11]; E. aerogenes 111707 (AmpC, TEM-1)
  MIC: 0.03 µg/mL (≈ 0.0782 µM)
[11]; E. aerogenes 111902 (AmpC, TEM-1)
  MIC: 0.12 µg/mL (≈ 0.313 µM)
[11]; E. coli 128 (AmpC, SHV-12, TEM-1, Toho-2)
  MIC: ≤ 0. 016 μg/ml
[11]; E. coli 3102 (AmpC, CTX-M-15, TEM-1)
  MIC: ≤ 0. 016 μg/ml
[11]; E. coli CH1 (AmpC, CTX-M-15, SHV-1, SHV-5, TEM-1)
  MIC: 0.06 µg/mL (≈ 0.156 µM)
[11]; E. coli EC469 (AmpC, SHV-12, TEM-1)
  MIC: ≤ 0. 016 μg/ml
[11]; E. coli J53 (AmpC, SHV-5, TEM-1)
  MIC: ≤ 0. 016 μg/ml
[11]; E. coli SI-P026TC (CMY-2, TEM-1)
  MIC: 0.12 µg/mL (≈ 0.313 µM)
[11]; E. coli SI-PO26 (AmpC, CMY-2, TEM-1)
  MIC: 0.03 µg/mL (≈ 0.0782 µM)
[11]; K. pneumoniae 129032 (MOX-2, SHV-12, TEM-1)
  MIC: 0.03 µg/mL (≈ 0.0782 µM)
[11]; K. pneumoniae 178279 (AmpC, SHV-12, TEM-1)
  MIC: 0.03 µg/mL (≈ 0.0782 µM)
[11]; K. pneumoniae 212027 (AmpC, FOX-5, TEM-1)
  MIC: 0.03 µg/mL (≈ 0.0782 µM)
[11]; K. pneumoniae 217917 (CMY-2, TEM-1)
  MIC: 0.06 µg/mL (≈ 0.156 µM)
[11]; K. pneumoniae 301313 (AmpC, SHV-12, TEM-1)
  MIC: 0.06 µg/mL (≈ 0.156 µM)
[11]; K. pneumoniae 398845 (CMY-2, SHV-12, TEM-1)
  MIC: 0.03 µg/mL (≈ 0.0782 µM)
[11]; K. pneumoniae SI-F100 (CMY-2, SHV-5, TEM-1)
  MIC: ≤ 0. 016 μg/ml
[11]; P. mirabilis SI-F014 (AmpC, TEM-72)
  MIC: 2 µg/mL (≈ 5.22 µM)
[11]; S. marcescens 132253 (AmpC, CTX-M-3, OXA-1, SHV-12, TEM-1)
  MIC: 0.5 µg/mL (≈ 1.3 µM)
[11]; S. marcescens 134434 (AmpC, SHV-12, TEM-1)
  MIC: 0.5 µg/mL (≈ 1.3 µM)
[11]; S. marcescens 142397 (AmpC, SHV-7, TEM-1)
  MIC: 0.25 µg/mL (≈ 0.652 µM)
[11]; S. marcescens 156212 (AmpC, SHV-12, TEM-1)
  MIC: 0.25 µg/mL (≈ 0.652 µM)
[11]; S. marcescens 192478 (AmpC, SHV-12, TEM-1)
  MIC: 0.12 µg/mL (≈ 0.313 µM)
[11]; S. marcescens 218068 (AmpC, SHV-7, TEM-1)
  MIC: 0.25 µg/mL (≈ 0.652 µM)
[12]; [15]
  MIC50: 4 µg/mL and 8 µg/mL
  MIC90: 16 µg/mL and 32 µg/mL
[12]; E. coli 664507 (OXA-48)
  MIC: 4 µg/mL (≈ 10.4 µM)
[12]; E. coli 664516 (OXA-48)
  MIC: 8 µg/mL (≈ 20.9 µM)
[12]; E. coli 664520 (OXA-48)
  MIC: 4 µg/mL (≈ 10.4 µM)
[12]; E. coli 664522 (OXA-48)
  MIC: 8 µg/mL (≈ 20.9 µM)
[12]; E. coli 664523 (OXA-48)
  MIC: 4 µg/mL (≈ 10.4 µM)
[12]; E. coli 664524 (OXA-48)
  MIC: 4 µg/mL (≈ 10.4 µM)
[12]; E. coli 664525 (OXA-48)
  MIC: 8 µg/mL (≈ 20.9 µM)
[12]; E. coli 664526 (OXA-48)
  MIC: 4 µg/mL (≈ 10.4 µM)
[12]; E. coli 664528 (OXA-48)
  MIC: 4 µg/mL (≈ 10.4 µM)
[12]; E. coli 787112 (OXA-48)
  MIC: 8 µg/mL (≈ 20.9 µM)
[12]; E. coli SI-422 (OXA-48)
  MIC: 1 µg/mL (≈ 2.61 µM)
[12]; E. coli VER (OXA-48)
  MIC: 1 µg/mL (≈ 2.61 µM)
[12]; K. pneumoniae 6299 (OXA-163)
  MIC: 4 µg/mL (≈ 10.4 µM)
[12]; K. pneumoniae 515746 (OXA-48), first line
  MIC: 1 µg/mL (≈ 2.61 µM)
[12]; K. pneumoniae 515746 (OXA-48), second line
  MIC: 0.5 µg/mL (≈ 1.3 µM)
[12]; K. pneumoniae 664438 (OXA-48)
  MIC: 8 µg/mL (≈ 20.9 µM)
[12]; K. pneumoniae 664439 (OXA-48)
  MIC: 4 µg/mL (≈ 10.4 µM)
[12]; K. pneumoniae 664509 (OXA-48)
  MIC: ≥ 64 µg/mL
[12]; K. pneumoniae 664518 (OXA-48)
  MIC: 4 µg/mL (≈ 10.4 µM)
[12]; K. pneumoniae 722870 (OXA-48)
  MIC: 1 µg/mL (≈ 2.61 µM)
[12]; K. pneumoniae BAH (OXA-204)
  MIC: 0.5 µg/mL (≈ 1.3 µM)
[12]; K. pneumoniae DEL (OXA-232)
  MIC: ≥ 64 µg/mL
[12]; K. pneumoniae DOV (OXA-48)
  MIC: 0.5 µg/mL (≈ 1.3 µM)
[12]; K. pneumoniae KIRK (OXA-162)
  MIC: 1 µg/mL (≈ 2.61 µM)
[12]; K. pneumoniae SI-C17 (OXA-48)
  MIC: 16 µg/mL (≈ 41.7 µM)
[13]
  MIC: 0.25 µg/mL (≈ 0.652 µM)
[14]; E. coli expressing ACT-17 (class C)
  Fold increase in MIC compared to vector control: 4
[14]; E. coli expressing CMY-2 (class C)
  Fold increase in MIC compared to vector control: 4
[14]; E. coli expressing CMY-42 (class C)
  Fold increase in MIC compared to vector control: 16
[14]; E. coli expressing CTX-M-15 (class A)
  Fold increase in MIC compared to vector control: 4
[14]; E. coli expressing GES-5 (class A)
  Fold increase in MIC compared to vector control: 512
[14]; E. coli expressing KPC-3 D179Y (class A)
  Fold increase in MIC compared to vector control: 8
[14]; E. coli expressing NDM-1 (class B)
  Fold increase in MIC compared to vector control: 2,048
[14]; E. coli expressing OXA-23 (class D)
  Fold increase in MIC compared to vector control: 128
[14]; E. coli expressing OXA-48 (class D)
  Fold increase in MIC compared to vector control: 256
[14]; E. coli expressing OXA-163 (class D)
  Fold increase in MIC compared to vector control: 32
[14]; E. coli expressing OXA-181 (class D)
  Fold increase in MIC compared to vector control: 256
[14]; E. coli expressing P99/AmpC (class C)
  Fold increase in MIC compared to vector control: 8
[14]; E. coli expressing PER-1 (class A)
  Fold increase in MIC compared to vector control: 4
[14]; E. coli expressing SHV-5 (class A)
  Fold increase in MIC compared to vector control: 4
[14]; E. coli expressing SHV-12 (class A)
  Fold increase in MIC compared to vector control: 4
[14]; E. coli expressing TEM-10 (class A), modal MIC, 4 replicates
  Fold increase in MIC compared to vector control: 4
[14]; E. coli expressing VEB-9 (class A)
  Fold increase in MIC compared to vector control: 2
[14]; Escherichia coli, read-out: Vector control MIC
  MIC: 0.016 µg/mL (≈ 0.0417 µM)
